Experimental data from US20120283209A1, “ANTIBACTERIAL AMINOGLYCOSIDE ANALOGS” (Achaogen, Inc., priority 2009, published 2012).
Converted amounts (≈) assume the structure as drawn.

Key:
[1] = system: AECO001 (E. coli ATCC25922); assay: MIC assay, CLSI broth microdilution; assay type: cell-based; conditions: Escherichia coli, Mueller Hinton Broth, 35 C, 20 hours
Protocol: (§1) Minimum inhibitory concentrations (MIC) were determined by reference Clinical and Laboratory Standards Institute (CLSI) broth microdilution methods per M7-A7 [2006]. Quality control ranges utilizing E. coli ATCC 25922, P. aeruginosa ATCC 27853 and S. aureus ATCC 29213, and interpretive criteria for comparator agents were as published in CLSI M100-S17 [2007]. Briefly, serial two-fold dilutions of the test compounds were prepared at 2× concentration in Mueller Hinton Broth. The compound dilutions were mixed in 96-well assay plates in a 1:1 ratio with bacterial inoculum. The inoculum was prepared by suspension of a colony from an agar plate that was prepared the previous day. Bacteria were suspended in sterile saline and added to each assay plate to obtain a final concentration of 5×10^5 CFU/mL. The plates were incubated at 35 C for 20 hours in ambient air.

[2] = system: APAE001 (P. aeruginosa ATCC27853); assay: MIC assay, CLSI broth microdilution; assay type: cell-based; conditions: Pseudomonas aeruginosa, Mueller Hinton Broth, 35 C, 20 hours
Protocol: as §1

Row | MIC [1] [µg/mL] | MIC [2] [µg/mL] | SMILES
1 | 1 to 16 (≈ 1.37 to 21.9 µM) | ≤ 1 | NC[C@@H](O)[C@H](O)C(=O)N[C@@H]1C[C@H](N)[C@@H](O[C@H]2O[C@H](CN)[C@@H](O)[C@@H](O)[C@H]2N)[C@H](O[C@@H]2O[C@H](CO)[C@@H](O[C@H]3O[C@@H](CN)[C@@H](O)[C@H](O)[C@H]3N)[C@H]2O)[C@H]1O [1/7]
2 | 1 to 16 (≈ 1.37 to 21.9 µM) | ≤ 1 | NC[C@@H]1O[C@H](O[C@H]2[C@@H](O)[C@H](O[C@@H]3[C@@H](O)[C@H](NC(=O)[C@@H](O)[C@@H](O)CN)C[C@H](N)[C@H]3O[C@H]3O[C@H](CN)[C@@H](O)[C@@H](O)[C@H]3N)O[C@@H]2CO)[C@H](N)[C@@H](O)[C@@H]1O [2/3]
3 | 1 to 16 (≈ 1.36 to 21.8 µM) | ≤ 1 | NC[C@@H](F)[C@H](O)C(=O)N[C@@H]1C[C@H](N)[C@@H](O[C@H]2O[C@H](CN)[C@@H](O)[C@@H](O)[C@H]2N)[C@H](O[C@@H]2O[C@H](CO)[C@@H](O[C@H]3O[C@@H](CN)[C@@H](O)[C@H](O)[C@H]3N)[C@H]2O)[C@H]1O [3/3]
4 | 1 to 16 (≈ 1.33 to 21.3 µM) | ≤ 1 | NC[C@@H]1O[C@H](O[C@H]2[C@@H](O)[C@H](O[C@@H]3[C@@H](O)[C@H](NC(=O)[C@@H](O)C(F)(F)CN)C[C@H](N)[C@H]3O[C@H]3O[C@H](CN)[C@@H](O)[C@@H](O)[C@H]3N)O[C@@H]2CO)[C@H](N)[C@@H](O)[C@@H]1O [4/3]
